Reference: ChEMBL document CHEMBL2321687, “Identification of a novel arylpiperazine scaffold for fatty acid amide hydrolase inhibition with improved drug disposition properties” (Bioorg Med Chem Lett, 2013)
The source made the active and inactive calls. The rule behind the calls is not given here.

Assays:
[1] = biological target: T1, Fatty-acid amide hydrolase 1 (Mus musculus, UniProt O08914); experiment: Inhibition of FAAH in mouse brain homogenate using [3Hethanolamine]AEA as substrate incubated for 20 mins prior to substrate addition measured after 15 mins by beta counting analysis; format: tissue-based
T1 sequence (O08914 whole entry): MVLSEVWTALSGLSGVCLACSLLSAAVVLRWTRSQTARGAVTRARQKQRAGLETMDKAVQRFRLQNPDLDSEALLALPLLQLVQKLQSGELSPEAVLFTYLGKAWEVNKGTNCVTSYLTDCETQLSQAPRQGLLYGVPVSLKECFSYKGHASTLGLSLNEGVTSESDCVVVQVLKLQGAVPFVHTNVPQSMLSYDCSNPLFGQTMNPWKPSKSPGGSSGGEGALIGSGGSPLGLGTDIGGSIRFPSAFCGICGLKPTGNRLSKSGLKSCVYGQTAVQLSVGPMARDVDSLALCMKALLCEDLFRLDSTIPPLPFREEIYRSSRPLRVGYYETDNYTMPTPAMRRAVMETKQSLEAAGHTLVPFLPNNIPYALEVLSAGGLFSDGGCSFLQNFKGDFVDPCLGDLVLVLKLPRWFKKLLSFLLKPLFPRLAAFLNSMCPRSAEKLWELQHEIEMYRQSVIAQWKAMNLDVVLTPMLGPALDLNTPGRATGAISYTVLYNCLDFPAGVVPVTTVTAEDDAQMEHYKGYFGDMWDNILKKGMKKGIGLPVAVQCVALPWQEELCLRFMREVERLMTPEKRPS

[2] = biological target: T2, Fatty-acid amide hydrolase 1 (Homo sapiens, UniProt O00519); experiment: Inhibition of human FAAH using [3Hethanolamine]AEA as substrate incubated for 20 mins prior to substrate addition measured after 15 mins by beta counting analysis
T2 sequence (O00519 whole entry): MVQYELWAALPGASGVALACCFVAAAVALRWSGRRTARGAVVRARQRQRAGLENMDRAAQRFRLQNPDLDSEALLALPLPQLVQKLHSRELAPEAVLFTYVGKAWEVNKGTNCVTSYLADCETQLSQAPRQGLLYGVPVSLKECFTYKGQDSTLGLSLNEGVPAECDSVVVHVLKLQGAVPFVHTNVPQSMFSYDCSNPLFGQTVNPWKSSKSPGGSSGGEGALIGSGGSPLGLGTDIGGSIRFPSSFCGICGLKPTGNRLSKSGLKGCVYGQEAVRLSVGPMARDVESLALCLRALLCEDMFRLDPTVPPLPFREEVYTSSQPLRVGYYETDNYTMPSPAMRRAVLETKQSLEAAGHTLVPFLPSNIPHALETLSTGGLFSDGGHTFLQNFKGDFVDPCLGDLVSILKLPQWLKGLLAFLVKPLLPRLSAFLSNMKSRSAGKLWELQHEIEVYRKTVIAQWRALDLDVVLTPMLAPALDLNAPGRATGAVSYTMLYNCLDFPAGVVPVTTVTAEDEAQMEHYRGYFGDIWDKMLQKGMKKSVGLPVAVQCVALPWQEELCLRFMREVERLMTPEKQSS

[3] = biological target: Fatty-acid amide hydrolase 1 (Mus musculus) (UniProt O08914); experiment: Reversible noncompetitive inhibition of FAAH in mouse brain homogenate using [3Hethanolamine]AEA as substrate incubated for 20 mins prior to dialysis for 18 hrs followed by substrate addition measured after 15 mins; format: tissue-based

Structure (SMILES) | Ki [1] [nM] | IC50 [2] [nM] | Ki [2] [nM] | inhibition [3]
NC(=O)c1ccn(-c2cccc(C(=O)N3CCN(CCCCCCc4ccccc4)CC3)c2)c1 | > 500 |  |  | 
O=C(NCCCCCCc1ccccc1)N1CCN(c2cccc(-n3cccc3)c2)CC1 | 263 |  |  | 
N#Cc1ccn(-c2cccc(N3CCN(CCCCCCc4ccccc4)CC3)c2)c1 | 270 |  |  | 
C/C(=N\OC(=O)N1CCCCC1)c1cccc(N2CCN(C)CC2)c1 | > 500 |  |  | 
O=C(NCCCCCCc1ccccc1)Oc1cccc(N2CCNCC2)c1 | 13 | 44 | 26 | Active
CN1CCN(c2cccc(OC(=O)NCCCCCCc3ccccc3)c2)CC1 | 240 |  |  | 
